Marks after values point to notes of the source that are not given here.
How the values were obtained:
Assay type in all cases: in vivo
hepatocytes of HFD mice = test: Histology of liver tissue (hepatocellular ballooning); settings: 4 weeks, grade 0 absence, 1 a few cells
Procedure: (§1) The following experiment was performed and approved by the guidelines of the Institutional Animal Care and Use Committee of Central Taiwan University of Science and Technology. The 4-week old male C57BL/6J mice (total amount n=63) were purchased from the National Laboratory Animal Breeding and Research Center (Taipei, Taiwan). After acclimatization for one week, all of the mice were divided randomly into the control (CON) group and the high-fat diet (HFD) group. For the following 12 weeks, the CON group (n=9) was kept on a low-fat diet (Diet 12450B, Research Diets, Inc., New Brunswick, N.J., USA), while the HFD group (n=54) was exposed to a high-fat diet (Diet 12451, Research Diets, New Brunswick, N.J., USA). The low-fat diet was composed of protein 20%, carbohydrate 70% and fat 10%, whereas the high-fat diet was composed of protein 20%, carbohydrate 35%, and fat 45% (of total energy, % kcal). After HFD exposure for 8 weeks, the HFD group was further randomly subdivided into 6 groups (n=9 per group) to receive different treatments by oral gavage once daily for four weeks and on HFD. […] The HF+B1, HF+B2, and […] are collectively termed BB-treated HFD groups in the following examples. The CON mice were administered vehicle. After dosing for 4 weeks, the mice were given no food at night and sacrificed after 12 h of fasting on the next day. All of the individual tissues were collected and weighed, and portions were instantly frozen using liquid nitrogen and kept at −80° C. for subsequent target gene analysis. Blood samples (0.8 mL) were collected for analysis of blood parameters.
(§2) Small pieces of epididymal white adipose tissue and liver tissue were fixed with formalin (200 g/kg) neutral buffered solution and embedded in paraffin. Sections of 8 μm […] were cut and stained with hematoxylin and eosin. For microscopic examination, a microscope (Leica, DM2500) was used, and the images were taken using a Leica Digital Camera (DFC-425-C).
Based on previous report, the designation of histological hepatocellular ballooning findings include grade 0 for absence of degeneration, grade 1 for degeneration in a few cells, and […] for degeneration in many cells.

[1] = system: C57BL/6J mice on high-fat diet (HFD); test: Absolute tissue weight, body weight, weight gain and food intake in HFD mice; settings: 4 weeks
Procedure: as §1
Body weight of each mouse was monitored and measured daily at the same time throughout the experimentation. The difference in body weight between two consecutive days is defined as body weight gain. The food pellets for mice were weighed and put into the food container. Unconsumed pellets of high-fat diet were discarded each day and fresh pellets of high-fat diet were provided to ensure food quality throughout the experimentation. The high-fat food pellets were stored at 4° C.

[2] = system: epididymal adipocyte of HFD mice; test: Histology of epididymal white adipose tissue (adipocyte hypertrophy); settings: 4 weeks, three measurements
Procedure: as §1, §2
Adipocyte hypertrophy, the pathological enlargement of adipocytes, is often found in subjects with type 2 diabetes and hyperlipidemia. To verify the therapeutic effect of the compound of formula I on adipocyte hypertrophy, morphology of the EWAT for the CON group and the BB-treated HFD groups was examined. Micrographs of the EWAT sections for each group were analyzed to determine the mean area of an epididymal adipocyte using the software ImageJ.

[3] = system: C57BL/6J mice on high-fat diet (HFD); test: Hepatic lipids in HFD mice; settings: 4 weeks
Procedure: as §1
For hepatic lipid extraction, a 0.375 g liver samples were homogenized with 1 mL distill water for 5 minutes. The dried pellet was finally resuspended in 0.5 mL ethanol and analyzed using a triglycerides kit as used for analyzing the serum lipids set forth above.

[4] = system: C57BL/6J mice on high-fat diet (HFD); test: Blood parameters (glucose, insulin, TG, FFA, TC, leptin, adiponectin) in HFD mice; settings: 4 weeks
Procedure: as §1, with “For the following 12 weeks, the CON group (n=9) was kept on a low-fat diet (Diet 12450B, Research Diets, Inc., New Brunswick, N.J., USA), while the HFD group (n=54) was exposed to a high-fat diet (Diet 12451, Research Diets, New Brunswick, N.J., USA). The low-fat diet was composed of protein 20%, carbohydrate 70% and fat 10%, whereas the high-fat diet was composed of protein 20%, carbohydrate 35%, and fat 45% (of total energy, % kcal).” left out
A portion of the blood samples obtained from the retro-orbital sinus of fasted mice were immediately used to measure blood glucose levels using Sidekick glucose analyzer (YSI 1500, YSI Incorporated, Yellow Springs, USA) according to the glucose oxidase method. Heparin (30 units/mL, Sigma) was added into other portions of the blood samples. […] Concentrations of plasma triglycerides (TG), total cholesterol (TC), and free fatty acids (FFA) were determined using commercial assay kits according to the manufacturer's instructions (Triglycerides-E test, Cholesterol-E test, and FFA-C test, Wako Pure Chemical, Osaka, Japan). Plasma insulin, leptin, and adiponectin levels were assessed using commercial assay kits according to the manufacturer's instructions (mouse insulin ELISA kit, Mercodia, Uppsala, Sweden; mouse leptin ELISA kit, Morinaga, Yokohama, Japan; Mouse Adiponectin ELISA kit, Crystal Chem International, Downers Grove, Ill., USA).

In the case of `CC(C)OC(=O)C(C)(C)Oc1ccc(C(=O)c2ccc(Cl)cc2)cc1` [Feno, fenofibrate, reference compound], the “hepatocellular ballooning mean score” value (hepatocytes of HFD mice; 250 mg/kg/day oral gavage) was 0.6±0.1, the “Absolute tissue weight BAT” value ([1]; 250 mg/kg/day oral gavage) was 0.139 ± 0.011 g and the “Absolute tissue weight EWAT” value ([1]; 250 mg/kg/day oral gavage) was 0.763 ± 0.116^f g. For the same compound, the “Absolute tissue weight Liver” value ([1]; 250 mg/kg/day oral gavage) was 1.669 ± 0.033^f g, the “Absolute tissue weight MWAT” value ([1]; 250 mg/kg/day oral gavage) was 0.264 ± 0.056 g and the “Absolute tissue weight RWAT” value ([1]; 250 mg/kg/day oral gavage) was 0.173 ± 0.032^f g. The “Absolute tissue weight Skeletal muscle” value ([1]; 250 mg/kg/day oral gavage) was 0.990 ± 0.078 g, the “Absolute tissue weight Visceral fat” value ([1]; 250 mg/kg/day oral gavage) was 0.936 ± 0.147^f g and the Body weight ([1]; 250 mg/kg/day oral gavage) was 26.92 ± 0.96 g. For the same compound, the Weight gain ([1]; 250 mg/kg/day oral gavage) was −0.58 ± 0.48^d g, the “mean area of an epididymal adipocyte” value ([2]; 250 mg/kg/day oral gavage) was 6982.3±309.7 μm^2 and the “Liver lipids Total lipid” value ([3]; 250 mg/kg/day oral gavage) was 62.4 ± 3.9^f mg/g. For the same compound, the “Liver lipids Triacylglycerol” value ([3]; 250 mg/kg/day oral gavage) was 43.8 ± 5.6^f μmol/g, the “Blood parameters Adiponectin” value ([4]; 250 mg/kg/day oral gavage) was 3.101 ± 0.028^f μg/mL and the “Blood parameters FFA” value ([4]; 250 mg/kg/day oral gavage) was 0.91 ± 0.08^f mEq/L. For the same compound, the “Blood parameters Leptin” value ([4]; 250 mg/kg/day oral gavage) was 1.206 ± 0.015^f ng/mL and the “Blood parameters TC” value ([4]; 250 mg/kg/day oral gavage) was 104.5 ± 5.5^f mg/dL.

In the case of `CN(CCOc1ccc(CC2SC(=O)NC2=O)cc1)c1ccccn1` (centres unmarked) [Rosi, rosiglitazone, reference compound], the “hepatocellular ballooning mean score” value (hepatocytes of HFD mice; 10 mg/kg/day oral gavage) was 0.8±0.2, the “Absolute tissue weight BAT” value ([1]; 10 mg/kg/day oral gavage) was 0.206 ± 0.012 g and the “Absolute tissue weight EWAT” value ([1]; 10 mg/kg/day oral gavage) was 0.919 ± 0.097^d g. For the same compound, the “Absolute tissue weight Liver” value ([1]; 10 mg/kg/day oral gavage) was 0.886 ± 0.031 g, the “Absolute tissue weight MWAT” value ([1]; 10 mg/kg/day oral gavage) was 0.302 ± 0.029 g and the “Absolute tissue weight RWAT” value ([1]; 10 mg/kg/day oral gavage) was 0.224 ± 0.032^f g. For the same compound, the “Absolute tissue weight Skeletal muscle” value ([1]; 10 mg/kg/day oral gavage) was 0.960 ± 0.078 g, the “Absolute tissue weight Visceral fat” value ([1]; 10 mg/kg/day oral gavage) was 1.143 ± 0.124^e g and the Body weight ([1]; 10 mg/kg/day oral gavage) was 28.61 ± 1.51 g. For the same compound, the Food intake ([1]; 10 mg/kg/day oral gavage) was 2.11 ± 0.06 g/day/mouse, the Weight gain ([1]; 10 mg/kg/day oral gavage) was 0.38 ± 0.32 g and the “mean area of an epididymal adipocyte” value ([2]; 10 mg/kg/day oral gavage) was 5886.4 ± 58.7 μm^2. For the same compound, the “Liver lipids Total lipid” value ([3]; 10 mg/kg/day oral gavage) was 70.1 ± 8.2^d mg/g, the “Liver lipids Triacylglycerol” value ([3]; 10 mg/kg/day oral gavage) was 52.1 ± 7.7^d μmol/g and the “Blood parameters Adiponectin” value ([4]; 10 mg/kg/day oral gavage) was 3.058 ± 0.040^f μg/mL. The “Blood parameters FFA” value ([4]; 10 mg/kg/day oral gavage) was 1.08 ± 0.11^e mEq/L, the “Blood parameters Leptin” value ([4]; 10 mg/kg/day oral gavage) was 1.661 ± 0.013^f ng/mL and the “Blood parameters TC” value ([4]; 10 mg/kg/day oral gavage) was 111.5 ± 2.3^f mg/dL.
